Measured values taken from patent US20060134197A1, “Method of reducing unpleasant taste and/or unpleasant odor” (priority 2002, published 2006).

Assays:
[1] = Inhibiting the production of hydrogen sulfide from L-cysteine due to heat-decomposition; details: 2.5 g L-cysteine hydrochloride and 5 g saccharide in 50 ml; 80° C. for 15 minutes; 100 minus relative value, control defined as 100
Source text: Two and half grams of precisely weighted L-cysteine hydrochloride (special reagent grade) and on a dry solid basis 5 g of a precisely measured saccharide sample; i.e. hydrous crystalline α,α-trehalose (reagent grade, purity 99.0% or more, commercialized by Hayashibara Biochemical Laboratories, Inc., Okayama, Japan), α-maltosyl α,α-trehalose prepared in the following Example 5 (purity 98.1%), or a reagent grade maltotetraose (purity 97.0% or more, commercialized by Hayashibara Biochemical Laboratories, Inc., Okayama, Japan); were placed in a 50-ml volume measuring flask and dissolved in deionized water to give a final volume of 50 ml. As a control, 2.5 g of precisely measured L-cysteine hydrochloride (special reagent grade) was dissolved in deionized water to give a final volume of 50 ml. Five ml of each sample was place into a 20-ml volume vial, sealed with a butyl gum cap, and kept at 80° C. for 15 minutes in an incubator. Hydrogen sulfide contained in 10 ml of the resulting headspace gas was measured by “GASTECH No. 4 LT”, a hydrogen sulfide detector commercialized by GL Science Corporation, under an aspiration time of one minute. The resulting value of the production of hydrogen sulfide of each test sample was compared with the value of control defined as 100 to calculate the relative value of the production of hydrogen sulfide. And then, the relative rate of inhibiting the production of hydrogen sulfide was calculated by 100 minus the relative value.

[2] = Inhibiting the production of aldehydes from heated minced mackerel (headspace GC); details: minced mackerel with 5% saccharide solution; for Relative rate of inhibiting the production of acetaldehyde / Relative rate of inhibiting the production of butanal / Relative rate of inhibiting the production of decanal / Relative rate of inhibiting the production of heptanal / Relative rate of inhibiting the production of hexanal / Relative rate of inhibiting the production of nonanal / Relative rate of inhibiting the production of octanal / Relative rate of inhibiting the production of pentanal / Relative rate of inhibiting the production of propanal: headspace gas; for Relative rate of inhibiting the production of total aldehydes: sum of nine aldehydes
Protocol: Five grams of minced mackerel, prepared by mincing commercialized mackerel without head part, internal organs and bone with a mincer to homogeneity, was placed in a 20-ml vial, and admixed with 5 ml of an aqueous solution containing on a dry solid basis 5% of “TREHA®”, a food grade hydrous α,α-trehalose commercialized by Hayashibara Biochemical laboratories, Inc., Okayama, Japan (purity 99.0% or more), sucrose (a commercialized granulated sugar), or a syrupy saccharide mixture containing saccharide derivatives of α,α-trehalose prepared in Example 1. The resulting vials were sealed with a butyl gum cap to prepare test samples. As a control, a vial containing 5 g of the minced mackerel and 5 ml of deionized water was sealed with a butyl gum cap for a control sample. These samples were heated in boiled water for 15 minutes, cooled in running water, and heated at 80° C. for five minutes. The resulting headspace gas was taken from each of the vials and allowed to measure the contents of amines, hydrogen sulfide and aldehydes.
Measurement of the content of aldehydes was carried out by subjecting 2 ml of the headspace gas to analysis by GC-14B gas chromatography, a hydrogen flame ionizing detector commercialized by Shimazu co., Ltd., Kyoto, Japan, with flowing helium gas as a carrier gas in 1 ml/minute, and using TC-FFAP capillary column, 30min length and 0.52 mm in internal diameter (df=1 μm, sprit rate 1/30), commercialized by GL Science Company, with an increasing column temperature from 40° C. to 250° C. at a rate of 5° C./minute.
The values of the production of amines, hydrogen sulfide and aldehydes of each test sample were compared with the value of control defined as 100 to calculate the relative values thereof. And then, the relative rates of inhibiting the production of amines, hydrogen sulfide and aldehydes were respectively calculated by 100 minus each of the relative values.

[3] = Inhibiting the production of hydrogen sulfide from chicken egg due to heat-decomposition; details: 10 g egg solution and 5 g saccharide in 50 ml, pH 7.0; 80° C. for 60 minutes; 100 minus relative value, control defined as 100
Source text: Ten grams of an egg solution prepared by mixing a commercialized chicken egg with an equal weight of deionized water, and on a dry solid basis 5 g of a precisely measured saccharide sample; i.e. hydrous crystalline α,α-trehalose (food grade, purity 97.0% or more, commercialized by Hayashibara Biochemical Laboratories, Inc., Okayama, Japan), sucrose (a commercialized granulated sugar), a syrup containing saccharide derivatives of α,α-trehalose prepared in the following Example 1, or a syrup containing saccharide derivatives of α,α-trehalose prepared in the following Example 6 (hereinafter, it is called as “hydrogenated syrup containing saccharide derivatives containing α,α-trehalose”); were placed in a 50-ml volume measuring flask, and admixed with 5 ml of 500 mM phosphate buffer (pH 7.0) and deionized water to give a final volume of 50 ml. As a control, 10 g of an egg solution was admixed with deionized water to give a final volume of 50 ml. Five milliliters of each of the samples was placed into a 20-ml volume vial, sealed with a butyl gum cap, and kept at 80° C. for 60 minutes in an incubator. Hydrogen sulfide contained in 10 ml of the resulting headspace gas was measured by “[…] […] And then, the relative rate of inhibiting the production of hydrogen sulfide was calculated by 100 minus the relative value.

[4] = Separately carried panel test of smell of cocoa samples; details: all of nine panels

Question: With `OC[C@H]1O[C@H](O[C@H]2O[C@H](CO)[C@@H](O)[C@H](O)[C@H]2O)[C@H](O)[C@@H](O)[C@@H]1O` [α,α-Trehalose, α,α-trehalose] as the molecule, how does the “Relative rate of inhibiting the production of hydrogen sulfide” value [1] read?
Answer: 52

Question: What about the “Relative rate of inhibiting the production of acetaldehyde” value [2] of the same molecule?
Answer: 73

Question: What about the “Relative rate of inhibiting the production of butanal” value [2] of the same molecule?
Answer: 100

Question: And the “Relative rate of inhibiting the production of decanal” value [2]?
Answer: 76

Question: And the “Relative rate of inhibiting the production of heptanal” value [2]?
Answer: 88

Question: What about the “Relative rate of inhibiting the production of hexanal” value [2] of the same molecule?
Answer: 93

Question: What about the “Relative rate of inhibiting the production of nonanal” value [2] of the same molecule?
Answer: 100

Question: What about the “Relative rate of inhibiting the production of octanal” value [2] of the same molecule?
Answer: 100

Question: What about the “Relative rate of inhibiting the production of pentanal” value [2] of the same molecule?
Answer: 83

Question: And the “Relative rate of inhibiting the production of propanal” value [2]?
Answer: 98

Question: And the “Relative rate of inhibiting the production of total aldehydes” value [2]?
Answer: 80

Question: And the “Relative rate of inhibiting the production of hydrogen sulfide” value [3]?
Answer: 30

Question: What about the “Smell of cocoa sample judged by panels” value [4] of the same molecule?
Answer: favorite smell

Question: Which “Relative rate of inhibiting the production of acetaldehyde” value [2] does the source give for `OC[C@H]1O[C@@](CO)(O[C@H]2O[C@H](CO)[C@@H](O)[C@H](O)[C@H]2O)[C@@H](O)[C@@H]1O` [Sucrose, sucrose] here?
Answer: 13

Question: What about the “Relative rate of inhibiting the production of butanal” value [2] of the same molecule?
Answer: −13

Question: And the “Relative rate of inhibiting the production of decanal” value [2]?
Answer: 57

Question: And the “Relative rate of inhibiting the production of heptanal” value [2]?
Answer: 54

Question: What about the “Relative rate of inhibiting the production of hexanal” value [2] of the same molecule?
Answer: 33

Question: What about the “Relative rate of inhibiting the production of nonanal” value [2] of the same molecule?
Answer: −54

Question: What about the “Relative rate of inhibiting the production of octanal” value [2] of the same molecule?
Answer: 43

Question: And the “Relative rate of inhibiting the production of pentanal” value [2]?
Answer: −15

Question: What about the “Relative rate of inhibiting the production of propanal” value [2] of the same molecule?
Answer: 32

Question: And the “Relative rate of inhibiting the production of total aldehydes” value [2]?
Answer: 20

Question: And the “Relative rate of inhibiting the production of hydrogen sulfide” value [3]?
Answer: 14
